System: hepatocytes
Test: Seq-Well scRNA-Seq of hepatocytes after APAP overdose (signature scores, DEG vs untreated)
Format: in vivo, mouse
Conditions: A6 vs UT

Structure (SMILES): CC(=O)Nc1ccc(O)cc1 [APAP, acetaminophen]
- Slc25a10 avg_logFC: −0.2828
- Slc25a10 pct.1: 0.351
- Slc25a47 avg_logFC: 0.4289
- Slc25a51 A6logFC: 0.264
- Slc25a51 avg_logFC: 0.264
- Slc25a51 pct.1: 0.308
- Slc26a1 A6logFC: −0.2817
- Slc26a1 avg_logFC: −0.2817
- Slc26a1 pct.1: 0.329
- Slc30a1 A6logFC: 0.2506
- Slc30a1 avg_logFC: 0.2506
- Slc30a1 pct.1: 0.346
- Slc35d1 A6logFC: 0.3094
- Slc35d1 avg_logFC: 0.3094
- Slc35d1 pct.1: 0.489
- Slc38a3 avg_logFC: −0.4098
- Slc38a3 pct.1: 0.663
- Slc39a14 avg_logFC: 1.013
- Slc40a1 avg_logFC: 0.467
- Slc40a1 pct.1: 0.456
- Slirp A6logFC: −0.3085
- Smoc1 A6logFC: 0.2616
- Smoc1 avg_logFC: 0.2616
- Smoc1 pct.1: 0.368
- Snx10 A6logFC: 0.2856
- Snx10 avg_logFC: 0.2856
- Snx10 pct.1: 0.341
- Sod1 avg_logFC: −0.4393
- Son avg_logFC: 0.5429
- Son pct.1: 0.601
- Sord avg_logFC: −0.3836
- Sord pct.1: 0.754
- Spag9 A6logFC: 0.3188
- Spag9 avg_logFC: 0.3188
- Spag9 pct.1: 0.415
- Spcs1 A6logFC: −0.2629
- Spcs1 avg_logFC: −0.2629
- Spcs1 pct.1: 0.236
- Spp2 avg_logFC: −0.3821
- Spp2 pct.1: 0.334
- Spred1 avg_logFC: 0.3884
- Spred1 pct.1: 0.308
- Sptan1 A6logFC: 0.3127
- Sptan1 avg_logFC: 0.3127
- Sptan1 pct.1: 0.348
- Sptbn1 avg_logFC: 0.4227
- Sptbn1 pct.1: 0.439
- Sqstm1 avg_logFC: 0.7432
- Srd5a1 A6logFC: −0.2773
- Srd5a1 avg_logFC: −0.2773
- Srd5a1 pct.1: 0.308
- Srgn avg_logFC: 0.9341
- Srrm2 A6logFC: 0.3282
- Srrm2 avg_logFC: 0.3282
- Srrm2 pct.1: 0.456
- Srxn1 avg_logFC: 1.878
- Ssr4 avg_logFC: −0.5076
- Ssr4 pct.1: 0.413
- St3gal1 avg_logFC: 0.5287
- St3gal4 A6logFC: 0.275
- St3gal4 avg_logFC: 0.275
- St3gal4 pct.1: 0.368
- St3gal5 avg_logFC: 0.6076
- Stard10 avg_logFC: −0.3383
- Stard10 pct.1: 0.876
- Stat3 avg_logFC: 0.7154
- Stbd1 A6logFC: −0.2732
- Steap4 avg_logFC: 0.4372
- Steap4 pct.1: 0.37
- Stk40 avg_logFC: 0.5364
- Suco A6logFC: 0.251
- Suco avg_logFC: 0.251
- Suco pct.1: 0.26
- Sult1a1 avg_logFC: 0.319
- Sult1a1 pct.1: 0.685
- Supt6 A6logFC: 0.2913
- Supt6 avg_logFC: 0.2913
- Supt6 pct.1: 0.291
- Swi5 A6logFC: −0.2621
- Swi5 avg_logFC: −0.2621
- Swi5 pct.1: 0.341
- Syncrip A6logFC: 0.2748
- Syncrip avg_logFC: 0.2748
- Syncrip pct.1: 0.365
- Tab2 A6logFC: 0.3484
- Tab2 avg_logFC: 0.3484
- Tab2 pct.1: 0.425
- Tacc2 avg_logFC: 0.3293
- Tacc2 pct.1: 0.289
- Tars avg_logFC: 0.4921
- Tars pct.1: 0.666
- Tatdn2 avg_logFC: 0.3733
- Tatdn2 pct.1: 0.334
- Tbc1d15 avg_logFC: 0.4886
- Tbc1d15 pct.1: 0.461
- Tbca A6logFC: −0.2726
- Tbca avg_logFC: −0.2726
- Tbca pct.1: 0.284
- Tcerg1 avg_logFC: 0.3575
- Tcerg1 pct.1: 0.305
- Tfpi2 avg_logFC: −0.3663
- Tfpi2 pct.1: 0.155
- Timm13 avg_logFC: −0.433
- Timm13 pct.1: 0.418
- Tiparp avg_logFC: 0.5456
- Tjp2 avg_logFC: 0.4115
- Tjp2 pct.1: 0.332
- Tln1 A6logFC: 0.321
- Tln1 avg_logFC: 0.321
- Tln1 pct.1: 0.31
- Tm4sf4 avg_logFC: 0.5126
- Tm4sf4 pct.1: 0.484
- Tmed5 avg_logFC: 0.4016
- Tmed5 pct.1: 0.594
- Tmem14c avg_logFC: −0.3685
- Tmem14c pct.1: 0.332
- Tmem37 A6logFC: −0.2822
- Tmem86b A6logFC: −0.2582
- Tmem87b avg_logFC: 0.4344
- Tmem87b pct.1: 0.351
- Tmem147 A6logFC: 0.2838
- Tmem150a A6logFC: −0.2535
- Tmem160 A6logFC: −0.339
- Tmem205 avg_logFC: −0.7747
- Tmem242 A6logFC: −0.2725
- Tmem256 avg_logFC: −0.5185
- Tmem256 pct.1: 0.375
- Tmem258 A6logFC: −0.2769
- Tmprss6 A6logFC: −0.2802
- Tmprss6 avg_logFC: −0.2802
- Tmprss6 pct.1: 0.551
- Tmsb4x avg_logFC: 0.7806
- Tnfrsf1a avg_logFC: 0.5996
- Tnfrsf12a avg_logFC: 1.118
- Tnks2 A6logFC: 0.3176
- Tns1 avg_logFC: 0.4349
- Tns1 pct.1: 0.403
- Tpi1 A6logFC: −0.2616
- Tpi1 avg_logFC: −0.2616
- Tpi1 pct.1: 0.539
- Tpr A6logFC: 0.4409
- Tra2a avg_logFC: 0.7123
- Trf avg_logFC: −0.2619
- Trf pct.1: 0.988
- Trib1 avg_logFC: 0.3317
- Trib1 pct.1: 0.411
- Trip11 A6logFC: 0.3479
- Trip11 avg_logFC: 0.3479
- Trip11 pct.1: 0.341
- Trp53inp1 avg_logFC: 1.008
- Tsc22d1 A6logFC: −0.2997
- Tsc22d2 avg_logFC: 0.3911
- Tsc22d2 pct.1: 0.353
- Tsku avg_logFC: 0.3676
- Tsku pct.1: 0.327
- Tspan31 A6logFC: −0.2959
- Tspan31 avg_logFC: −0.2959
- Tspan31 pct.1: 0.415
- Tspo A6logFC: −0.3157
- Tsr1 avg_logFC: 0.3603
- Tsr1 pct.1: 0.341
- Ttc36 avg_logFC: −0.6606
- Ttr avg_logFC: −0.5306
- Tubb2a avg_logFC: 0.7494
- Tubb6 avg_logFC: 0.5767
- Tyrobp avg_logFC: 0.4666
- Ubb A6logFC: −0.275
- Ubc avg_logFC: −0.6618
- Ubr4 A6logFC: 0.3301
- Ubr4 avg_logFC: 0.3301
- Ubr4 pct.1: 0.411
- Ubr5 A6logFC: 0.3057
- Ubr5 avg_logFC: 0.3057
- Ubr5 pct.1: 0.399
- Ugdh avg_logFC: 0.6331
- Ugt2b5 avg_logFC: −0.6034
- Ugt2b36 avg_logFC: −0.5834
- Ugt3a2 A6logFC: −0.2586
- Ugt3a2 avg_logFC: −0.2586
- Ugt3a2 pct.1: 0.492
- Uhrf1bp1l avg_logFC: 0.4198
- Uhrf1bp1l pct.1: 0.399
- Uox avg_logFC: −0.5531
- Upp2 avg_logFC: −0.6903
- Uqcr10 avg_logFC: −0.4519
- Uqcr10 pct.1: 0.561
- Uqcr11 avg_logFC: −0.6031
- Uqcrb avg_logFC: −0.4084
- Uqcrb pct.1: 0.425
- Uqcrh avg_logFC: −0.4292
- Uqcrh pct.1: 0.589
- Urah avg_logFC: −0.7641
- Usp4 avg_logFC: 0.28
- Usp4 pct.1: 0.439
- Usp7 A6logFC: 0.2873
- Usp7 avg_logFC: 0.2873
- Usp7 pct.1: 0.363
- Usp9x avg_logFC: 0.3184
- Usp9x pct.1: 0.451
- Usp34 A6logFC: 0.2859
- Usp34 avg_logFC: 0.2859
- Usp34 pct.1: 0.37
